According to US7538226B2, “(1S,5S)-3-(5,6-dichloro-3-pyridinyl)-3,6-diazabicyclo[3.2.0]heptane” (Abbott Laboratories, priority 2003, dated 2009):

Key:
[1] = tested on: scopolamine-induced cognitive deficit; test: Morris water maze, spatial discrimination version, scopolamine-induced cognitive deficit; assay type: in vivo, rat; details: about 0.001 to about 5 μmol/kg, 30 minutes prior to the test; scopolamine HBr 0.3 mg/kg i.p.
Experimental: Male, Long-Evans rats, 300-400 g, obtained from Charles River laboratories were used in this study. During two daily habituation sessions, rats are trained to find a visible escape platform in a pool (180 cm diameter and 60 cm high) filled to a depth of 37 cm with water made opaque with powdered milk. Water temperature is maintained at 26° C. On the second day of habituation training, latency to escape measures are obtained in order to assure that animals are assigned to groups without swim speed bias. For spatial discrimination training, two visible platforms, covered in aluminum foil, are present. The platforms remain in the same position (diagonal to each other) through 5 days of training. Only one of the platforms provides escape; the other, made of expanded polystyrene, will not support the animals' weight. Rats receive six trials/day, with start position changed from trial to trial. The number of contacts with the incorrect platform (errors) serves as the dependent variable.
A cognitive deficit, as measured by increased number of errors in the water maze test, is induced by i.p. administration of the muscarinic antagonist scopolamine·HBr (0.3 mg/kg), dosed 15 min prior to each daily discrimination training session (over five days total).

Solubility in water = assay type: physicochemical

| SMILES | effect on scopolamine-induced cognitive deficit in the water maze [1] | solubility (Solubility in water) [µg/mL] |
| --- | --- | --- |
| Clc1cc(N2C[C@@H]3CN[C@@H]3C2)cnc1Cl [(1S,5S)-3-(5,6-Dichloropyridin-3-yl)-3,6-diaza-bicyclo[3.2.0]heptane] | reversed the cognitive deficit and normalized the performance of the animals in the water maze |  |
| Clc1cc(N2C[C@@H]3CN[C@@H]3C2)cnc1Cl.O=C(O)/C=C/C(=O)O [Example 10, (1S,5S)-3-(5,6-Dichloro-pyridin-3-yl)-3,6-diaza-bicyclo[3.2.0]heptane fumarate] |  | 2900 |
| CS(=O)(=O)O.Clc1cc(N2C[C@@H]3CN[C@@H]3C2)cnc1Cl [Example 8, (1S,5S)-3-(5,6-Dichloro-pyridin-3-yl)-3,6-diaza-bicyclo[3.2.0]heptane methanesulfonate] |  | > 50000 |
| Clc1cc(N2C[C@@H]3CN[C@@H]3C2)cnc1Cl.O=C(O)/C=C\C(=O)O [Example 9, (1S,5S)-3-(5,6-Dichloro-pyridin-3-yl)-3,6-diaza-bicyclo[3.2.0]heptane maleate] |  | 7500 |
| CC(=O)O.Clc1cc(N2C[C@@H]3CN[C@@H]3C2)cnc1Cl [Example 6, (1S,5S)-3-(5,6-Dichloro-pyridin-3-yl)-3,6-diaza-bicyclo[3.2.0]heptane acetate] |  | 13400 |
